Experimental data as given in patent publication US6737383B1, “Herbicidal oxadiazolidines” (priority 1999, dated 2004).

Legend:
[1] = test system: surinam grass; assay: Test B pre/postemergence surinam grass; assay type: in vivo, Brachiaria decumbens
How it was run: (§1)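 Response is a visual 0-to-10 score relative to untreated plants, where 0 means no effect and 10 means complete control, taken twelve to sixteen days after application. Treatments went onto soil at planting and onto foliage of 1- to 4-leaf plants, using a surfactant-containing non-phytotoxic solvent.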

[2] = test system: soybean; assay: Test B pre/postemergence soybean; assay type: in vivo, Glycine max
How it was run: as §1

[3] = test system: bedstraw; assay: Test B pre/postemergence bedstraw; assay type: in vivo, Galium aparine
How it was run: as §1

[4] = test system: giant foxtail; assay: Test B pre/postemergence giant foxtail; assay type: in vivo, Setaria faberii
How it was run: as §1

[5] = Postemergence, Rate 250 g/ha, scale 0 to 10, 0 no effect, 10 complete control
[6] = Postemergence, Rate 500 g/ha, scale of 0 to 10 where 0 is no effect and 10 is complete control
[7] = Preemergence, Rate 62 g/ha, scale of 0 to 10 where 0 is no effect and 10 is complete control
[8] = Preemergence, Rate 125 g/ha, scale of 0 to 10 where 0 is no effect and 10 is complete control
[9] = Preemergence, Rate 250 g/ha, scale 0 to 10, 0 is no effect, 10 is complete control
[10] = Preemergence, Rate 500 g/ha, scale 0 to 10, 0 is no effect, 10 is complete control
[11] = Rate 62 g/ha, Postemergence, scale 0 to 10 (0 no effect, 10 complete control)
[12] = Rate 125 g/ha, Postemergence, scale 0 to 10, 0 is no effect, 10 is complete control
[13] = Postemergence, Rate 250 g/ha, scale 0 to 10
[14] = Postemergence, Rate 62 g/ha, scale 0 to 10, 0 is no effect, 10 is complete control
[15] = Postemergence, Rate 125 g/ha, scale of 0 to 10 where 0 is no effect and 10 is complete control
[16] = Postemergence, Rate 250 g/ha, scale of 0 to 10, 0 is no effect, 10 is complete control
[17] = Preemergence, Rate 250 g/ha, scale 0 to 10 (0 no effect, 10 complete control)
[18] = Preemergence, Rate 500 g/ha, scale of 0 to 10 where 0 is no effect and 10 is complete control

CC(C)N(C(=O)n1oc(=O)n(C(C)C(=O)N(C)C)c1=O)c1ccc(F)cc1 (stereo not shown) [Compound 478]
B. signalgrass plant response rating [1, 5]: 5
B. signalgrass plant response rating [1, 6]: 8
Plant response rating, B. signalgrass [1, 7]: 4
Plant response rating, B. signalgrass [1, 8]: 6
B. signalgrass plant response rating [1, 9]: 9
B. signalgrass plant response rating [1, 10]: 10
B. signalgrass plant response rating [1, 11]: 0
B. signalgrass plant response rating [1, 12]: 0
Soybean plant response rating [2, 13]: 2
Plant response rating, Soybean [2, 7]: 0
Plant response rating, Soybean [2, 8]: 0
Soybean plant response rating [2, 9]: 0
Soybean plant response rating [2, 10]: 0
Soybean plant response rating [2, 11]: 2
Soybean plant response rating [2, 12]: 2
Plant response rating, Bedstraw [3, 8]: 8
Bedstraw plant response rating [3, 9]: 8
Bedstraw plant response rating [3, 11]: 0
Bedstraw plant response rating [3, 12]: 0
Giant foxtail plant response rating [4, 13]: 8
Giant foxtail plant response rating [4, 6]: 9
Plant response rating, Giant foxtail [4, 7]: 9
Plant response rating, Giant foxtail [4, 8]: 10
Giant foxtail plant response rating [4, 9]: 10
Giant foxtail plant response rating [4, 10]: 10
Giant foxtail plant response rating [4, 11]: 3
Giant foxtail plant response rating [4, 12]: 6

CC(C)N(C(=O)n1oc(=O)n(CC(=O)C2CC2)c1=O)c1ccc(Cl)cc1 [Compound 639]
Plant response rating, B. signalgrass [1, 14]: 0
Plant response rating, B. signalgrass [1, 15]: 0
B. signalgrass plant response rating [1, 16]: 0
Plant response rating, B. signalgrass [1, 6]: 2
B. signalgrass plant response rating [1, 7]: 0
B. signalgrass plant response rating [1, 8]: 0
Plant response rating, B. signalgrass [1, 17]: 5
Plant response rating, B. signalgrass [1, 18]: 7
Plant response rating, Soybean [2, 14]: 0
Plant response rating, Soybean [2, 15]: 0
Soybean plant response rating [2, 16]: 3
Soybean plant response rating [2, 7]: 0
Soybean plant response rating [2, 8]: 0
Plant response rating, Soybean [2, 17]: 0
Plant response rating, Soybean [2, 18]: 3
Plant response rating, Giant foxtail [4, 14]: 0
Plant response rating, Giant foxtail [4, 15]: 0
Giant foxtail plant response rating [4, 16]: 6
Plant response rating, Giant foxtail [4, 6]: 7
Giant foxtail plant response rating [4, 7]: 7
Giant foxtail plant response rating [4, 8]: 9
Plant response rating, Giant foxtail [4, 17]: 9
Plant response rating, Giant foxtail [4, 18]: 9

CC(C)N(C(=O)n1oc(=O)n(CCS(C)(=O)=O)c1=O)c1ccc(F)cc1 [Compound 453]
B. signalgrass plant response rating [1, 5]: 2
B. signalgrass plant response rating [1, 6]: 5
Plant response rating, B. signalgrass [1, 7]: 0
Plant response rating, B. signalgrass [1, 8]: 2
B. signalgrass plant response rating [1, 9]: 6
B. signalgrass plant response rating [1, 10]: 6
B. signalgrass plant response rating [1, 11]: 0
B. signalgrass plant response rating [1, 12]: 0
Soybean plant response rating [2, 13]: 1
Plant response rating, Soybean [2, 7]: 0
Plant response rating, Soybean [2, 8]: 0
Soybean plant response rating [2, 9]: 0
Soybean plant response rating [2, 10]: 0
Soybean plant response rating [2, 11]: 1
Soybean plant response rating [2, 12]: 1
Giant foxtail plant response rating [4, 13]: 7
Giant foxtail plant response rating [4, 6]: 9
Plant response rating, Giant foxtail [4, 7]: 7
Plant response rating, Giant foxtail [4, 8]: 9
Giant foxtail plant response rating [4, 9]: 10
Giant foxtail plant response rating [4, 10]: 10
Giant foxtail plant response rating [4, 11]: 3
Giant foxtail plant response rating [4, 12]: 5
